The test system of the assay is HIV-1 (H9/IIIB strain). Kind of assay: Multiple round HIV-1 infection assay (Viking assay) in MT4-GFP cells. Particulars: HIV-1 replication in MT4-GFP cells. The assay is classed as cell-based. The procedure: Assessing Antiviral Potency in a Multiple Round HIV-1 Infection Assay (Viking Assay)
The antiviral activity of the tenofovir prodrugs of the Examples herein was assessed in an assay that measures the rate of replication of HIV in cell culture, termed the Viking assay (VIral KINetics in Green cells) and performed as follows. HIV-1 replication was monitored using MT4-gag-GFP clone D3 (hereafter designated MT4-GFP), which are MT-4 cells modified to harbor a GFP reporter gene, the expression of which is dependent on the HIV-1 expressed proteins tat and rev. Productive infection of an MT4-GFP cell with HIV-1 results in GFP expression approximately 24 h post-infection. MT4-GFP cells were maintained at 37° C./5% CO2/90% relative humidity in RPMI 1640 supplemented with 10% fetal bovine serum, 100 U/ml penicillin/streptomycin, and 400 μg/ml G418 to maintain the reporter gene. For infections, MT4-GFP cells were placed in the same medium lacking G418 and infected overnight with HIV-1 (H9/IIIB strain) virus at an approximate multiplicity of infection of 0.01 in the same incubation conditions. […] Compound plates were prepared by dispensing compounds dissolved in DMSO into wells of 384 well poly-D-lysine-coated plates (0.2 μl/well) using an ECHO acoustic dispenser. Each compound was tested in a 10-point serial 3-fold dilution (typical final concentrations: 8.4 μM-0.42 nM). Controls included no inhibitor (DMSO only) and a combination of three antiviral agents (efavirenz, indinavir, an in-house integrase strand transfer inhibitor at final concentrations of 4 μM each). Cells were added (50 μL/well) to compound plates and the infected cells were maintained at 37° C./5% CO2/90% relative humidity.
Infected cells were quantified at two time points, ˜48 h and ˜72 h post-infection, by counting the number of green cells in each well using an Acumen eX3 scanner. The increase in the number of green cells over ˜24 h period gives the reproductive ratio, R0, which is typically 5-15 and has been shown experimentally to be in logarithmic phase (data not shown). Inhibition of R0 is calculated for each well, and IC50s determined by non-linear 4-parameter curve fitting.

The mark [1] stands for this setting: Human immunodeficiency virus 1, IIIB, 50% NHS (normal human serum), read-out: Viking, IC50 (50% NHS).
Setting [2] is: Human immunodeficiency virus 1, IIIB, head prints 100% NHS (normal human serum), read-out: Viking, IC50 (100% NHS).
Where [3] appears, read: 50% NHS (normal human serum), read-out: Viking, IC50 (50% NHS).
Where [4] appears, read: head prints 100% NHS (normal human serum), read-out: Viking, IC50 (100% NHS).

Where two headings read alike, the source gives them in different places.

For `CC(C)OC(=O)C(C)(C)NP(=O)(CO[C@H](C)Cn1cnc2c(N)ncnc21)NC(=O)c1ccc(Cl)cc1` (mixture of isomers) [Example 1A, isopropyl 2-(((R)—((((R)-1-(6-amino-9H-purin-9-yl)propan-2-yl)oxy)methyl)(4-chlorobenzamido)phosphoryl)amino)-2-methylpropanoate and isopropyl 2-(((S)—((((R)-1-(6-amino-9H-purin-9-yl)propan-2-yl)oxy)methyl)(4-chlorobenzamido)phosphoryl)amino)-2-methylpropanoate], the IC50 amounted to 286 nM under setting [1] and 82.4 nM under setting [2].

Take `CCCOC(=O)C(C)(C)NP(=O)(CO[C@H](C)Cn1cnc2c(N)ncnc21)NC(=O)c1ccc(OC)cc1` (single isomer, unassigned) [Example 2A]: the IC50 turned out to be 93.2 nM under setting [1] and 32.4 nM under setting [2].

Turning to `CCCOC(=O)C(C)(C)NP(=O)(CO[C@H](C)Cn1cnc2c(N)ncnc21)NC(=O)c1ccc(Cl)cc1` (single isomer, unassigned) [Example 4A], the 50% inhibitory concentration (IC50) under setting [3] was 57.9 nM and the IC50 under setting [4] stood at 12 nM.

Consider `CC(C)COC(=O)C(C)(C)NP(=O)(CO[C@H](C)Cn1cnc2c(N)ncnc21)NC(=O)c1ccc(Cl)cc1` (single isomer, unassigned) [Example 5A], for which the IC50 reads like this: under setting [3], 79.8 nM; under setting [4], 12.3 nM.

Turning to `CC(C)COC(=O)C(C)(C)NP(=O)(CO[C@H](C)Cn1cnc2c(N)ncnc21)NC(=O)c1ccc(Cl)cc1` (single isomer, unassigned) [Example 5B], the IC50 under setting [3] is 24.4 nM and the IC50 under setting [4] came out at 1.9 nM.

For the compound `C[C@H](Cn1cnc2c(N)ncnc21)OCP(=O)(NC(=O)c1ccc(Cl)cc1)NC(C)(C)C(=O)OC1CCC1` (single isomer, unassigned) [Example 6A], the half-inhibitory concentration (IC50) by setting is: under setting [3], 36.9 nM; under setting [4], 11.1 nM.

Take `C[C@H](Cn1cnc2c(N)ncnc21)OCP(=O)(NC(=O)c1ccc(Cl)cc1)NC(C)(C)C(=O)OC1CCCC1` (single isomer, unassigned) [Example 7A]: the concentration for half-maximal inhibition (IC50) is 31.7 nM under setting [3] and 8.4 nM under setting [4].

In the case of `C[C@H](Cn1cnc2c(N)ncnc21)OCP(=O)(NC(=O)c1ccc(Cl)cc1)NC(C)(C)C(=O)OC1CCCC1` (single isomer, unassigned) [Example 7B], the half-maximal inhibitory concentration (IC50) under setting [3] came to 13.5 nM and the IC50 under setting [4] was found to be 1.92 nM.

In the case of `CCOCCOC(=O)C(C)(C)NP(=O)(CO[C@H](C)Cn1cnc2c(N)ncnc21)NC(=O)c1ccc(Cl)cc1` (single isomer, unassigned) [Example 8A], the half-maximal inhibitory concentration (IC50) turned out to be 133 nM under setting [3] and 63.9 nM under setting [2].

`CCOCCOC(=O)C(C)(C)NP(=O)(CO[C@H](C)Cn1cnc2c(N)ncnc21)NC(=O)c1ccc(Cl)cc1` (single isomer, unassigned) [Example 8B]: the 50% inhibitory concentration (IC50) by setting is: under setting [3], 62.2 nM; under setting [4], 41.1 nM.

For `C[C@H](Cn1cnc2c(N)ncnc21)OCP(=O)(NC(=O)c1ccc(Cl)cc1)NC(C)(C)C(=O)OC1CCOCC1` (single isomer, unassigned) [Example 9A], the IC50 was found to be 1440 nM under setting [3] and 404 nM under setting [4].

Consider `CC(C)OC(=O)C(C)(C)NP(=O)(CO[C@H](C)Cn1cnc2c(N)ncnc21)NC(=O)c1ccc(F)cc1` (single isomer, unassigned) [Example 10A], for which the concentration for half-maximal inhibition (IC50) by setting is: under setting [3], 264 nM; under setting [4], 129 nM.

`CCCCCOC(=O)C(C)(C)NP(=O)(CO[C@H](C)Cn1cnc2c(N)ncnc21)NC(=O)c1ccc(F)cc1` (single isomer, unassigned) [Example 11B]: the IC50 by setting is: under setting [3], 30.8 nM; under setting [4], 5.7 nM.

For the compound `CCOCCOC(=O)C(C)(C)NP(=O)(CO[C@H](C)Cn1cnc2c(N)ncnc21)NC(=O)c1ccccc1Cl` (single isomer, unassigned) [Example 12A], the IC50 by setting is: under setting [1], 90.6 nM; under setting [2], 30.9 nM.

On to `CCOCCOC(=O)C(C)(C)NP(=O)(CO[C@H](C)Cn1cnc2c(N)ncnc21)NC(=O)c1ccccc1Cl` (single isomer, unassigned) [Example 12B], for which the IC50 amounted to 83.4 nM under setting [3] and 26.7 nM under setting [4].

In the case of `CC(C)OC(=O)C(C)(C)NP(=O)(CO[C@H](C)Cn1cnc2c(N)ncnc21)NC(=O)c1ccncn1` (single isomer, unassigned) [Example 13A], the half-maximal inhibitory concentration (IC50) was found to be 2130 nM under setting [3] and 854 nM under setting [4].

`CC(C)OC(=O)C(C)(C)NP(=O)(CO[C@H](C)Cn1cnc2c(N)ncnc21)NC(=O)c1ccncn1` (single isomer, unassigned) [Example 13B]: the 50% inhibitory concentration (IC50) is, setting by setting: under setting [3], 480 nM; under setting [4], 164 nM.

`CC(C)OC(=O)C(C)(C)NP(=O)(CO[C@H](C)Cn1cnc2c(N)ncnc21)NC(=O)c1cnccn1` (single isomer, unassigned) [Example 14A]: the half-inhibitory concentration (IC50) came to 1570 nM under setting [3] and 284 nM under setting [4].

Regarding `CC(C)OC(=O)C(C)(C)NP(=O)(CO[C@H](C)Cn1cnc2c(N)ncnc21)NC(=O)c1cnccn1` (single isomer, unassigned) [Example 14B], the IC50 under setting [3] worked out at 314 nM and the IC50 under setting [4] came out at 112 nM.

On to `CCCCCOC(=O)C(C)(C)NP(=O)(CO[C@H](C)Cn1cnc2c(N)ncnc21)NC(=O)c1cccs1` (single isomer, unassigned) [Example 15B], for which the IC50 came out at 29.8 nM under setting [3] and 8.1 nM under setting [4].

As to `CCCCCOC(=O)C(C)(C)NP(=O)(CO[C@H](C)Cn1cnc2c(N)ncnc21)NC(=O)c1ccccc1OC` (single isomer, unassigned) [Example 16A], the half-inhibitory concentration (IC50) under setting [1] was 153 nM and the IC50 under setting [2] was 13.3 nM.

On to `CCCCCOC(=O)C(C)(C)NP(=O)(CO[C@H](C)Cn1cnc2c(N)ncnc21)NC(=O)c1ccccc1OC` (single isomer, unassigned) [Example 16B], for which the IC50 was determined as 139 nM under setting [3] and 15.5 nM under setting [4].

As for `COc1ccc(C(=O)NP(=O)(CO[C@H](C)Cn2cnc3c(N)ncnc32)NC(C)(C)C(=O)OC(C)C)cc1` (single isomer, unassigned) [Example 17A], the IC50 reads like this: under setting [3], 54.3 nM; under setting [4], 18.3 nM.

Regarding `COc1ccc(C(=O)NP(=O)(CO[C@H](C)Cn2cnc3c(N)ncnc32)NC(C)(C)C(=O)OC(C)C)cc1` (single isomer, unassigned) [Example 17B], the IC50 was found to be 390 nM under setting [3] and 157 nM under setting [4].

`CCCCCOC(=O)C(C)(C)NP(=O)(CO[C@H](C)Cn1cnc2c(N)ncnc21)NC(=O)c1ccc(C)cc1` (single isomer, unassigned) [Example 18A]: the IC50 reads like this: under setting [3], 35.4 nM; under setting [4], 9 nM.

On to `CCCOC(=O)C(C)(C)NP(=O)(CO[C@H](C)Cn1cnc2c(N)ncnc21)NC(=O)c1ccccc1Cl` (single isomer, unassigned) [Example 21B], for which the IC50 under setting [1] worked out at 229 nM and the concentration for half-maximal inhibition (IC50) under setting [2] worked out at 33.6 nM.

For `CCOC(=O)C(C)(C)NP(=O)(CO[C@H](C)Cn1cnc2c(N)ncnc21)NC(=O)c1ccc(C(C)(C)C)cc1` (single isomer, unassigned) [Example 22A], the IC50 by setting is: under setting [3], 48.1 nM; under setting [4], 15.1 nM.

Turning to `CCOC(=O)C(C)(C)NP(=O)(CO[C@H](C)Cn1cnc2c(N)ncnc21)NC(=O)c1ccc(C(C)(C)C)cc1` (single isomer, unassigned) [Example 22B], the half-maximal inhibitory concentration (IC50) is, setting by setting: under setting [3], 15.7 nM; under setting [4], 5.8 nM.

In the case of `CCCOC(=O)C(C)(C)NP(=O)(CO[C@H](C)Cn1cnc2c(N)ncnc21)NC(=O)c1ccc(OC)cc1` (stereo partly drawn) [Example 2B, propyl 2-(((R)—((((R)-1-(6-amino-9H-purin-9-yl)propan-2-yl)oxy)methyl)(4-methoxy-benzamido)phosphoryl)amino)-2-methylpropanoate and propyl 2-(((S)—((((R)-1-(6-amino-9H-purin-9-yl)propan-2-yl)oxy)methyl(4-methoxybenzamido)phosphoryl)amino)-2-methylpropanoate], the IC50 came out at 69.8 nM under setting [1] and 27.5 nM under setting [2].

For `CCCOC(=O)C(C)(C)NP(=O)(CO[C@H](C)Cn1cnc2c(N)ncnc21)NC(=S)c1ccc(Cl)cc1` (stereo partly drawn) [Example 19, propyl 2-((((((R)-1-(6-amino-9H-purin-9-yl)propan-2-yl)oxy)methyl)(4-chlorophenylthioamido)phosphoryl)amino)-2-methylpropanoate], the half-inhibitory concentration (IC50) amounted to 347 nM under setting [1] and 32.1 nM under setting [2].

For orientation: IC50 means the point on the concentration scale where inhibition reaches its midpoint.

(Values after patent publication US10736908B2, “Antiviral aryl-amide phosphodiamide compounds” (Merck Sharp & Dohme Corp., priority 2016, dated 2020).)
